Bridge positions count the residues as written; N and C are the ends. Square brackets hold non-standard residues; d marks the D form. Peptide text beside a SMILES is read from it. Hyp = O=C(O)[C@@H]1C[C@@H](O)CN1; Cit = NC(=O)NCCC[C@H](N)C(=O)O
Key:
[1] = target: T1, hAMY3 receptor (Homo sapiens, UniProt O60896+P30988); experiment: cAMP assay for in vitro receptor activation, hAMY3-R; type: cell-based; details: cAMP assay, hAMY3 receptor; read-out: hAMY3R EC50
T1 sequence (P30988 25-474): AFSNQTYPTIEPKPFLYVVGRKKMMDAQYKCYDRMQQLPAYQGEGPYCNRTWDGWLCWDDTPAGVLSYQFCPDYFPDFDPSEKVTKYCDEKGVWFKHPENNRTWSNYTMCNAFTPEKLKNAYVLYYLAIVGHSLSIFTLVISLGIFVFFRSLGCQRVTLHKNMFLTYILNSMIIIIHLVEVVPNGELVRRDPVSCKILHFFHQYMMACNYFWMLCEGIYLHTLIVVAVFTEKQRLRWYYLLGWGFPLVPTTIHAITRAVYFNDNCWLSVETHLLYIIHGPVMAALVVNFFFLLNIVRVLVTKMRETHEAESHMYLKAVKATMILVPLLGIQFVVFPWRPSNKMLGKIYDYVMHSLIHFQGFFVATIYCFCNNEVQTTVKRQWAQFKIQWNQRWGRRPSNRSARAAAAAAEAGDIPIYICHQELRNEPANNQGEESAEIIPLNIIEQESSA
T1 sequence (O60896 24-148 partner): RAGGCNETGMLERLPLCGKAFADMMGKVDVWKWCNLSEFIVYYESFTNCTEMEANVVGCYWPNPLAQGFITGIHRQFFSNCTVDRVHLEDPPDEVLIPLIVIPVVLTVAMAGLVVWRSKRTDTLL
Method in brief: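 Monoclonal cell line stably overexpressing human AMY3 receptor, 2000 cells/well in DPBS with 0.05% casein and 0.5 mM IBMX. Stimulated 30 min at room temperature with graded compound doses, human amylin as positive control. cAMP accumulation read by TR-FRET after one hour.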

[2] = Physical stability of peptide analogues (Thioflavin T fibrillation); type: physicochemical; details: maximum ThT signal normalized between hAMY maximum and buffer background; 40° C., shaking, four days; pH 7 per table title
Method in brief: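 Samples are stressed at 40 °C for four days, being shaken at 700 rpm before each 10-min fluorescence reading of 4 μM Thioflavin T. Buffers were pH 4 acetate or pH 7 phosphate. Reported values are smoothed maximum ThT signals as a percentage of the hAMY-to-background range.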

Structure (SMILES) | EC50 [1] [nM] | Max ThT signal (%) [2] [%]
CC[C@H](C)[C@H](NC(=O)[C@H](CCC(N)=O)NC(=O)[C@H](Cc1c[nH]cn1)NC(=O)[C@H](C)NC(=O)[C@H](CC(C)C)NC(=O)[C@H](CCCNC(N)=O)NC(=O)[C@H](CCC(N)=O)NC(=O)[C@@H](NC(=O)[C@@H](NC(=O)[C@@H]1CSSC[C@H](NC(=O)CN)C(=O)N[C@@H](CCCNC(=N)N)C(=O)N[C@@H](Cc2ccccc2)C(=O)NCC(=O)N[C@@H]([C@@H](C)O)C(=O)N1)[C@@H](C)O)C(C)C)C(=O)N[C@@H](Cc1ccc(O)cc1)C(=O)N[C@@H](CCC(N)=O)C(=O)N[C@@H](Cc1ccccc1)C(=O)N[C@H](C(=O)N[C@@H](CC(=O)O)C(=O)N[C@@H](CCCCN)C(=O)N[C@@H](CC(=O)O)C(=O)N[C@@H](CCCCN)C(=O)N[C@@H](CC(=O)O)C(=O)N[C@@H](CC(N)=O)C(=O)N[C@H](C(=O)N[C@@H](C)C(=O)N1CCC[C@H]1C(=O)N[C@@H](CCCNC(=N)N)C(=O)N[C@@H](CO)C(=O)N[C@@H](CC(N)=O)C(=O)N[C@H](C(=O)NCC(=O)N1CCC[C@H]1C(=O)N[C@@H](CCC(N)=O)C(=O)NCC(=O)N1C[C@H](O)C[C@H]1C(N)=O)C(C)C)C(C)C)[C@@H](C)O [compound 289] (H-GCRFGTCTVQ[Cit]LAHQIYQFTDKDKDNVAPRSNVGPQG[Hyp]-NH2; disulfide 2-7; N-terminus assumed) | 0.005 | 21.150
CC[C@H](C)[C@H](NC(=O)[C@H](CCC(N)=O)NC(=O)[C@H](Cc1c[nH]cn1)NC(=O)[C@H](C)NC(=O)[C@H](CC(C)C)NC(=O)[C@H](CCCNC(=N)N)NC(=O)[C@H](CCC(N)=O)NC(=O)[C@@H](NC(=O)[C@@H](NC(=O)[C@@H]1CSSC[C@H](NC(=O)CN)C(=O)N[C@@H](CCCNC(=N)N)C(=O)N[C@@H]([C@@H](C)O)C(=O)NCC(=O)N[C@@H]([C@@H](C)O)C(=O)N1)[C@@H](C)O)C(C)C)C(=O)N[C@@H](Cc1ccc(O)cc1)C(=O)N[C@@H](CCC(N)=O)C(=O)N[C@@H](Cc1ccccc1)C(=O)N[C@H](C(=O)N[C@@H](CC(=O)O)C(=O)N[C@@H](CCCCN)C(=O)N[C@@H](CC(=O)O)C(=O)N[C@@H](CCCCN)C(=O)N[C@@H](CC(=O)O)C(=O)N[C@@H](CC(N)=O)C(=O)N[C@H](C(=O)N[C@@H](C)C(=O)N1CCC[C@H]1C(=O)N[C@@H](CCCNC(=N)N)C(=O)N[C@H](C(=O)N[C@@H](CCCCN)C(=O)N[C@H](C(=O)NCC(=O)N1CCC[C@H]1C(=O)N[C@@H](CCC(N)=O)C(=O)NCC(=O)N[C@@H](Cc1ccc(O)cc1)C(N)=O)C(C)C)[C@@H](C)O)C(C)C)[C@@H](C)O [compound 156] (H-GCRTGTCTVQRLAHQIYQFTDKDKDNVAPRTKVGPQGY-NH2; disulfide 2-7; N-terminus assumed) | 0.047 | 15.300
CC[C@H](C)[C@H](NC(=O)[C@H](CCC(N)=O)NC(=O)[C@H](Cc1c[nH]cn1)NC(=O)[C@H](C)NC(=O)[C@H](CC(C)C)NC(=O)[C@H](CCCNC(=N)N)NC(=O)[C@H](CCC(N)=O)NC(=O)[C@@H](NC(=O)[C@@H](NC(=O)[C@@H]1CSSC[C@H](NC(=O)CN)C(=O)N[C@@H](CCCNC(=N)N)C(=O)N[C@@H](Cc2ccccc2)C(=O)NCC(=O)N[C@@H]([C@@H](C)O)C(=O)N1)[C@@H](C)O)C(C)C)C(=O)N[C@@H](Cc1ccc(O)cc1)C(=O)N[C@@H](CCC(N)=O)C(=O)N[C@@H](Cc1ccccc1)C(=O)N[C@H](C(=O)N[C@@H](CC(=O)O)C(=O)N[C@@H](CCCCN)C(=O)N[C@@H](CC(=O)O)C(=O)N[C@@H](CCCCN)C(=O)N[C@@H](CC(=O)O)C(=O)N[C@@H](CC(N)=O)C(=O)N[C@H](C(=O)N[C@@H](C)C(=O)N1CCC[C@H]1C(=O)N[C@@H](CCCNC(=N)N)C(=O)N[C@H](C(=O)N[C@@H](CCCCN)C(=O)N[C@H](C(=O)NCC(=O)N1CCC[C@H]1C(=O)N[C@@H](CCC(N)=O)C(=O)NCC(=O)N1C[C@H](O)C[C@H]1C(N)=O)C(C)C)[C@@H](C)O)C(C)C)[C@@H](C)O [compound 45] (H-GCRFGTCTVQRLAHQIYQFTDKDKDNVAPRTKVGPQG[Hyp]-NH2; disulfide 2-7; N-terminus assumed) | 0.011 | 3.000

Continued by falling EC50 [1], values first:

EC50 [1] [nM] | Max ThT signal (%) [2] [%] | Structure (SMILES)
0.085 | 15.600 | CC[C@H](C)[C@H](NC(=O)[C@H](CCC(N)=O)NC(=O)[C@H](Cc1c[nH]cn1)NC(=O)[C@H](C)NC(=O)[C@H](CC(C)C)NC(=O)[C@H](CCCNC(=N)N)NC(=O)[C@H](CCC(N)=O)NC(=O)[C@@H](NC(=O)[C@@H](NC(=O)[C@@H]1CSSC[C@H](NC(=O)CN)C(=O)N[C@@H](CCCNC(=N)N)C(=O)N[C@@H](Cc2ccccc2)C(=O)NCC(=O)N[C@@H]([C@@H](C)O)C(=O)N1)[C@@H](C)O)C(C)C)C(=O)N[C@@H](Cc1ccc(O)cc1)C(=O)N[C@@H](CCC(N)=O)C(=O)N[C@@H](Cc1ccccc1)C(=O)N[C@H](C(=O)N[C@@H](CC(=O)O)C(=O)N[C@@H](CCCCN)C(=O)N[C@@H](CC(=O)O)C(=O)N[C@@H](CCCCN)C(=O)N[C@@H](CC(=O)O)C(=O)N[C@@H](CC(N)=O)C(=O)N[C@H](C(=O)N[C@@H](C)C(=O)N1CCC[C@H]1C(=O)N[C@@H](CCCNC(=N)N)C(=O)N[C@@H](CO)C(=O)N[C@@H](CC(N)=O)C(=O)N[C@H](C(=O)N[C@@H](CO)C(=O)N1CCC[C@H]1C(=O)N[C@@H](CCC(N)=O)C(=O)NCC(=O)N[C@@H](Cc1ccc(O)cc1)C(N)=O)[C@@H](C)CC)C(C)C)[C@@H](C)O [compound 182] (H-GCRFGTCTVQRLAHQIYQFTDKDKDNVAPRSNISPQGY-NH2; disulfide 2-7; N-terminus assumed)
0.041 | 1.900 | CC[C@H](C)[C@H](NC(=O)[C@H](CCC(N)=O)NC(=O)[C@H](Cc1c[nH]cn1)NC(=O)[C@H](C)NC(=O)[C@H](CC(C)C)NC(=O)[C@H](CCCNC(=N)N)NC(=O)[C@H](CCC(N)=O)NC(=O)[C@@H](NC(=O)[C@@H](NC(=O)[C@@H]1CSSC[C@H](NC(=O)CN)C(=O)N[C@@H](CCCNC(=N)N)C(=O)N[C@@H](Cc2ccccc2)C(=O)NCC(=O)N[C@@H]([C@@H](C)O)C(=O)N1)[C@@H](C)O)C(C)C)C(=O)N[C@@H](Cc1ccc(O)cc1)C(=O)N[C@@H](CCC(N)=O)C(=O)N[C@@H](Cc1ccccc1)C(=O)N[C@H](C(=O)N[C@@H](CC(=O)O)C(=O)N[C@@H](CCCCN)C(=O)N[C@@H](CC(=O)O)C(=O)N[C@@H](CCCCN)C(=O)N[C@@H](CC(=O)O)C(=O)N[C@@H](CC(N)=O)C(=O)N[C@H](C(=O)N[C@@H](C)C(=O)N1CCC[C@H]1C(=O)N[C@@H](CCCNC(=N)N)C(=O)N[C@@H](CO)C(=O)N[C@@H](CCCCN)C(=O)N[C@H](C(=O)NCC(=O)N1CCC[C@H]1C(=O)N[C@@H](CCC(N)=O)C(=O)NCC(=O)N1C[C@H](O)C[C@H]1C(N)=O)C(C)C)C(C)C)[C@@H](C)O [compound 152] (H-GCRFGTCTVQRLAHQIYQFTDKDKDNVAPRSKVGPQG[Hyp]-NH2; disulfide 2-7; N-terminus assumed)
0.036 | 8.800 | CC[C@H](C)[C@H](NC(=O)[C@H](CCC(N)=O)NC(=O)[C@H](Cc1c[nH]cn1)NC(=O)[C@H](C)NC(=O)[C@H](CC(C)C)NC(=O)[C@H](CCCNC(=N)N)NC(=O)[C@H](CCC(N)=O)NC(=O)[C@@H](NC(=O)[C@@H](NC(=O)[C@@H]1CSSC[C@H](NC(=O)CN)C(=O)N[C@@H](CCCNC(=N)N)C(=O)N[C@@H](Cc2ccccc2)C(=O)NCC(=O)N[C@@H]([C@@H](C)O)C(=O)N1)[C@@H](C)O)C(C)C)C(=O)N[C@@H](Cc1ccc(O)cc1)C(=O)N[C@@H](CCC(N)=O)C(=O)N[C@@H](Cc1ccccc1)C(=O)N[C@H](C(=O)N[C@@H](CC(=O)O)C(=O)N[C@@H](CCCCN)C(=O)N[C@@H](CC(=O)O)C(=O)N[C@@H](CCCCN)C(=O)N[C@@H](CC(=O)O)C(=O)N[C@@H](CC(N)=O)C(=O)N[C@H](C(=O)N[C@@H](C)C(=O)N1CCC[C@H]1C(=O)N[C@@H](CCCNC(=N)N)C(=O)N[C@H](C(=O)N[C@@H](CCCCN)C(=O)N[C@H](C(=O)N[C@@H](CO)C(=O)N1CCC[C@H]1C(=O)N[C@@H](CC(N)=O)C(=O)NCC(=O)N[C@@H](Cc1ccc(O)cc1)C(N)=O)C(C)C)[C@@H](C)O)C(C)C)[C@@H](C)O [compound 385] (H-GCRFGTCTVQRLAHQIYQFTDKDKDNVAPRTKVSPNGY-NH2; disulfide 2-7; N-terminus assumed)
